In patent publication US10519132B2, “Isocorydine derivatives, preparation method and use thereof” (Lanzhou Institute of Chemical Physics, Chinese Academy of …, priority 2017, dated 2019):
Read-outs that look alike come from different tables or passages of the source.

Experiments:
[1] = system: human liver cancer cell strain HepG2; experiment: MTT growth inhibition on HepG2; type: cell-based; conditions: read-out: IC50 HepG2;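 also: adherent cells in 96-well plates treated with a concentration series for 24, 48 or 72 h, MTT absorbance read at 490 nm, inhibition computed relative to untreated control wells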
Experimental: (§5) By using an MTT method, a sample solution to be tested was added to a 96-well plate in which cancer cells were adherently grown. Culturing was performed for a certain period, and the growth inhibition effect of a compound on a human cancer cell strain for primary screening was measured to determine the anti-cancer activity of the compound.
(§6) Cell culture: A cell incubator was set to conditions of 37° C., 5% CO2, and a saturated humidity, cells were cultured under these conditions, and the cell medium was a DMEM complete medium, wherein 10% fetal bovine serum, 100 IU/mL penicillin, and 100 μg/mL streptomycin were comprised.
(§7) The single cell suspension was diluted to 5×10^3/100 μL after counting, inoculated on a 96-well cell culture plate (triplicate), and adherently cultured overnight;
(§8) After 24 h of adhesion, the complete medium was discarded, 100 μL-sample-solutions to be tested having different concentrations were sequentially added to the 96-well plate according to a concentration gradient, and incubations were continued for 24 h, 48 h, and 72 h;
(§9) The culture liquid was discarded, a 0.5 mg/mL MTT diluted working liquid was added, and incubation was performed for 4 h by placing in an incubator;
(§10) The culture liquid was discarded, 100 μL of DMSO was added, low-speed oscillation was performed for 10 min by placing on a shaker, and the spectrophotometric value of each well was measured at a wavelength of 490 nm by using a microplate reader. Statistical analysis was performed and tumor cell growth inhibition rate was calculated according to the equation: Growth inhibition rate=(OD value of control group−OD value of experimental group)/OD value of control group.
(§11) Culturing was performed for a certain period, the growth inhibition effect of a compound on 3 human cancer cell strains for primary screening was measured to determine the anti-cancer activity of the compound, and a growth inhibition curve was plotted.

[2] = background; cited from earlier work
[3] = system: human cervical cancer Hela cell strains; experiment: MTT growth inhibition on Hela;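 also: compound exposure of 24, 48 or 72 h in DMEM with 10% fetal bovine serum, MTT absorbance read at 490 nm, inhibition calculated relative to control group OD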
Experimental: as §5, §6, §7, §8, §9, §10, §11

[4] = system: human gastric cancer cell strain MGC-803; experiment: MTT growth inhibition on MGC-803;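 also: adherent cells exposed to compound over a concentration gradient for 24, 48 and 72 h, MTT absorbance at 490 nm, inhibition relative to untreated control wells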
Experimental: as §5, §6, §7, §8, §9, §10, §11

[5] = system: various HCC; conditions: background; read-out: IC50 values, inhibition of tumor growth of various HCC; cited from earlier work
[6] = system: HepG2 cells; experiment: Cell cycle distribution by flow cytometry; type: cell-based, human; conditions: sorafenib 5 μg/mL, FICD 10 μg/mL, combination 5 μg/mL FICD+10 μg/mL sorafenib
Experimental: 1 mL of 70% precooled (−20° C.) ethanol was added to the cell precipitate, homogenized by pipetting, and fixed at 4° C. overnight. On the second day, HepG2 cells was collected by centrifugation, 2 mL of precooled PBS was added for washing 3 times, 500 μL of PBS containing 50 μg/mL […] (PI) and 100 μg/mL RNaseA was added, and incubation was performed at 4° C. under protection from light for 30 min. Detection was performed on a flow cytometer, and results can be seen in FIG. 9 and FIG. 10.

[7] = system: HepG2 cells; experiment: Apoptosis induction by laser confocal scanning microscope; type: cell-based, human; conditions: HepG2, 48 h
Experimental: Two solutions (a former one and a later one) were mixed, centrifugation was performed at 1000 r/min for 5 min, the supernatant was discarded, and washing was performed for 3 times with PBS. The cell precipitate was resuspended in Binding Buffer, 10 μL of a FITC-Annen V staining liquid was added, homogenized by pipetting slightly, and reaction was performed under protection from light. PI was added for staining for 15 min, centrifugation was performed, the supernatant was discarded, and washing was performed for 3 times again with PBS. A glass slide was loaded by applying the cell precipitate thereto and mounted with non-fluorescent buffering glycerol, a laser confocal scanning microscope was immediately used for observation and taking photographs at wavelengths of 488 nm and 560 nm. Meanwhile, cells without AnneixnV-FITC and PI added were used as a negative control.

[8] = parameters: species or system white Kunming mice; conditions: mouse, in vivo
Experimental: (§1) 2. Establishment of tumor models and method of grouping: a third passage of mice which were well grown 7 d after intraperitoneal inoculation of H22 tumor cells were sacrificed by cervical dislocation, and placed and soaked in 75% alcohol for 10 min. After 3 mL of sterile physiological saline was intraperitoneally injected, milky tumor cell ascites was withdrawn from the abdominal cavity, and formulated into a tumor cell suspension with sterile physiological saline, with a cell number of 1.5×10^7 mL^−1. 80 white Kunming mice were taken, and 0.2 mL of the tumor cell suspension was subcutaneously inoculated to the left axilla of each mouse. 24 h after the inoculation of tumor cells, the mice were divided into 8 groups according to body weights, 10 mice for each group. […] All of the administration manners were intraperitoneal administration.
(§2) 3. Result of experiments: On the second day of modeling, continuous administration was performed for 10 d. Administration was stopped on the 11th d, and mice were sacrificed by cervical dislocation on the next day.
(§3) Method: Modeling was performed by using the method of establishing H22 white mice tumor-bearing model of Example 24. The in vivo tumor growth inhibition activity of COM33 on H22 model mice was measured in an intraperitoneal injection administration manner.

[9] = system: Vimentin; experiment: Western blotting, Vimentin expression in HepG2 cells; type: cell-based, human
Experimental: (§4) Method: Gel electrophoresis of protein samples. Gel formulation: All components were added to a small beaker according to a formulation of a separation gel, uniformly mixed with slightly shaking to prevent the generation of bubbles, quickly applied to a seam of a glass plate with a 1 mL pipette, and then blocked with double distilled water to prevent oxidation. After 30 min, the separation gel solidified, the double distilled water thereof was poured off, waster was suctioned with a filter paper, a 5% concentration gel was formulated, TEMED was finally loaded onto the glass plate, and a 1.0 mm comb was inserted into the concentration gel and placed at room temperature for 30 min. The comb was slightly, vertically, and carefully pulled up, various groups of 20 μL protein samples were pipetted with a microsyringe, an equal volume of a loading buffer and an equal volume of a loading buffer containing 3 μL of Marker were separately added to a loading well, an electrophoresis instrument was switched on after electrodes were plugged, gels were run at 75V for 30 min, and the voltage was changed to 120V and gels were run for 2 h when bromophenol blue reaches the separation gel. Membrane transfer: A PVDF membrane having a suitable size was cut according to the size of the gel, placed in a methanol solution for 1 min, lifted, and placed and soaked together with a well cut filter paper in a previously precooled membrane transfer buffer. A sponge pad, three layers of filter paper, a gel, three layers of filter paper, and a sponge pad, in this order from top to bottom, were placed in a membrane transfer tank, and a precooled membrane transfer buffer was then added. Several ice bags were placed circumferentially to prevent an excessively hot external environment, and electrodes were plugged and membrane transfer was performed at a constant current of […] for 2.5 hours. Blocking and incubation of antibodies: A transferred membrane was cut into desired bands, which were placed in a blocking solution of 5% skim milk powder, placed on a shaker, and shaken at room temperature at a low speed for 1 h. A primary antibody was diluted with the blocking solution, a corresponding antibody was pipetted and added to a zip lock bag, the PVDF membrane was then placed in the antibody dilution, bubbles in the zip lock bag were evacuated, and the zip lock bag was sealed and placed in a refrigerator at 4° C. overnight. The membrane was withdrawn from the zip lock bag on the second day, and placed in a clean dish. A TBST solution was added and washed 3 times on a low-speed shaker, 10 min for each time. […]

[10] = system: C-Myc, Ki-67, CylinD1, β-Catenin protein; experiment: Western blotting, protein expression in HepG2 cells; type: cell-based, human; conditions: sorafenib 4 μg/mL
Experimental: as §4

[11] = system: HepG2 cells; experiment: Apoptosis induction, Annexin V and PI double-staining, flow cytometry; type: cell-based, human; conditions: HepG2, 24 h; sorafenib 4 μg/mL; combination 4 μg/mL sorafenib+5 μg/mL FICD
Experimental: Different concentrations of FICD were added on the second day, culture was continued for 24 h, cells were collected and washed 3 times with precooled PBS, and adherent cells were digested with trypsin free of EDTA. The solutions were combined, centrifuged, and washed 3 times again with precooled PBS. 400 μL of solution containing 5 μL of V-FITC and 10 μL of PI was added, incubation was performed at room temperature under protection from light, and detection was performed by flowcytometry after 30 min.

[12] = system: ascites hepatoma H22 induced solid tumor; experiment: In vivo tumor growth inhibition in mice bearing H22; parameters: species or system white Kunming mice; conditions: sorafenib 50 mg/Kg
From the text: 1. Tumor strain and animal for experiments: H22 liver cancer cell strain was provided by Teaching and Research Office, School of Basic Medical Sciences, Lanzhou University/Key Lab of Preclinical Study for New Drugs of Gansu Province, and was passage and preserved by periodically intraperitoneal inoculation. White Kunming mice (18.0-22.0 g) were provided by Lanzhou Veterinary Institute, Chinese Academy of Agriculture.
as §1, §2
Test method: For the test method, see Example 24. Results can be seen in FIG. 15, FIG. 16, and Table 5.
as §3

[13] = system: hepatocellular carcinoma in late stages; conditions: background; cited from earlier work

For COc1cc(N)c2c(c1O)-c1c(OC)c(OC)cc3c1[C@H](C2)N(C)CC3 [NICD, 8-amino-isocorydine, reference compound], the IC50 ([1]; Table 2, MTT) is listed as 51.1 µM, the “stability on storage in an aqueous solution” value [2] is listed as “cannot be stored in an aqueous solution for a long period” and the IC50 ([3]; read-out: IC50 Hela, Table 2, MTT) is listed as 44.1 µM. It also gave an IC50 ([4]; read-out: IC50 MGC-803, Table 2, MTT) of 62.1 µM.
In the case of COc1ccc2c(c1O)-c1c(OC)c(OC)cc3c1[C@H](C2)N(C)CC3 [ICD, isocorydine], the IC50 ([1]; Homo sapiens, HepG2, Table 2, MTT) is reported as 569 µM, the IC50 ([3]; Homo sapiens, HeLa, read-out: IC50 HeLa) is reported as 581 µM and the IC50 ([4]; Homo sapiens, MGC-803, read-out: IC50 MGC-803) is reported as 388 µM. For the same compound, the IC50 [5] was greater than 200 µM.
In the case of CNC(=O)c1cc(Oc2ccc(NC(=O)Nc3ccc(Cl)c(C(F)(F)F)c3)cc2)ccn1 [Sorafenib, reference compound], the “cell cycle distribution compared to the blank control group” value [6] is reported as “cells significantly increased in the G0/G1 phase of the cell cycle and significantly decreased in the S phase”, the “apoptosis and cell morphology, Anneixn V-FITC and PI double-staining” value [7] is reported as “apoptoses occurred during various phases” and the “toxic and side effects on increased dosage” value [8] is reported as “toxic and side effects of sorafenib would obviously occur, resulting in death of experimental animals”. For the same compound, the Vimentin expression ([9]; COM33 experiment (FIG. 17), combination compared to the sorafenib group) was “expressed in all groups”, the Vimentin expression ([9]; FICD experiment (FIG. 12)) was “significantly increased” and the “expressions of C-Myc, Ki-67, CylinD1 and β-Catenin protein compared to the blank control group” value ([10]; high COM33 dosage 10.0 μg/mL, combination 4 μg/mL sorafenib+5.0 μg/mL COM33) was “significantly reduced”. The “expressions of C-Myc, Ki-67, CylinD1 and β-Catenin protein compared to the blank group” value ([10]; high FICD dosage 20 μg/mL, combination 4 μg/mL sorafenib+10 μg/mL FICD) was “significantly reduced”, the apoptosis rate [11] was 29.33% and the “Tumor inhibition rate (%)” value ([12]; Table 4, intraperitoneal, 10 d) was 55.8%. The “Tumor inhibition rate (%)” value ([12]; Table 6, intraperitoneal injection) was 56.5% and the “elongation of overall survival time of an HCC patient” value [13] was 2 months.
